Measured values published in PMC7602742, “Physiologically-Based Pharmacokinetic/Pharmacodynamic Model of MBQ-167 to Predict Tumor Growth Inhibition in Mice” (Pharmaceutics, 2020).

Assays:
[1] = cited from earlier work
[2] = Physicochemical properties (PBPK model inputs); details: model input
Description: The molecular weight of MBQ-167 is 338.414 g/mol and the water partition coefficient (logPoctanol:water) ratio is 4.944. […] The fu in plasma was estimated to 0.02. B/P ratio was initially estimated in the base PBPK model development phase and then optimized using a local sensitivity analysis (LSA) with a final value of 1.8.

[3] = test system: mammary fat pad tumor and metastases; details: cited from earlier work
[4] = Metabolism on incubation in liver microsomes; assay type: in vitro ADME; details: incubated in liver microsomes
Description: (§1) Due to the limited information of any active process in MBQ-167 renal excretion and/or tubular reabsorption, it was assumed that renal excretion was only mediated by glomerular filtration.

[5] = Intrinsic clearance from in vitro hepatocytes; assay type: in vitro ADME; details: in vitro determined, read-out: Hep intrinsic CL
Description: as §1

[6] = design: method as in PMID 31720502; details: cited from earlier work
[7] = Tumor pharmacokinetics in 4T1 tumor-bearing mice (observed); assay type: in vivo; details: BALB/c, mouse, tumor (4T1), single IP 10 mg/kg
Method: Thirty-five BALB/c mice were injected with 2.5 × 10^5 4T1 murine metastatic breast cancer cells at the mammary fat pad under isoflurane inhalation (1–3% in oxygen using an inhalation chamber at 2 L/min) to produce primary tumors, as described. Following IP treatment with a single dose of MBQ-167 (10 mg/kg), five mice/group were sacrificed by cervical dislocation at 0.5, 1, 3, 6, 9,12, and 24 h. Following sacrifice, tumors were collected and flushed with normal saline, individually wrapped in aluminum foil, snap-frozen in liquid nitrogen, and stored frozen at −80 °C until use.
Tumor samples were extracted by liquid-liquid extraction method, as previously described by. Briefly, frozen tumors were thawed, weighed (100 mg), and homogenized using the Polytron PT 2100 instrument in pH 7.4 saline (1:4 w/v). […]
We used a validated bioanalytical method using supercritical fluid chromatography coupled with tandem mass spectrometry to quantify MBQ-167 in tumors and tissues, as previously described. […]
The final MBQ-167 PBPK model was verified through both graphical and numerical analysis. […] The performance of the MBQ-167 PBPK model was assessed by the fold error at each tissue, which referred to the ratio of the predicted AUC0-t or Cmax to the observed AUC0-t or Cmax, respectively (Equation (1)). AUC0-t was calculated by the trapezoidal rule. […]

Cdc42 = test system: Cdc42; design: method as in PMID 28450422; details: inhibition of GTPase activation; read-out: half-maximal inhibitory concentration (IC50) for Cdc42; cited from earlier work
[8] = Plasma and tissue pharmacokinetics after single IP dose (observed); assay type: in vivo; details: female, BALB/c, mouse, single IP 10 mg/kg, mice; for AUC(0-t): read-out: AUC obs (AUC0-t)
Method: All animal studies were conducted under approved animal protocols (#A8180117, #A8180112) by the University of Puerto Rico Medical Sciences Campus Institutional Animal Care and Use Committee, in accordance with the principles and procedures outlined in the NIH Guideline for the Care and Use of Laboratory Animals. Four to five-week-old female BALB/c mice (Charles River Laboratories, Inc. Wilmington, MA, USA) were housed under pathogen-free conditions in HEPA-filtered cages and kept on a 12 h light/dark cycle, and controlled temperature (22–24 °C), and humidity (25%). Food and water were given ad libitum. MBQ-167 was prepared as a stock solution of 2 mg/mL in Cremophor®:ethanol:PBS (12.5:12.5:75) solution. Each mouse was administered a single 0.1 mL dose of MBQ-167 (in 12.5% ethanol, 12.5% Cremophor®, 75% phosphate buffered saline, pH 7.4) that corresponded to 10 mg/kg body weight (BW) by IP injection.
We used a validated bioanalytical method using supercritical fluid chromatography coupled with tandem mass spectrometry to quantify MBQ-167 in tumors and tissues, as previously described. The analysis was performed on an Acquity UPC^2 system (Waters Corp., Milford, MA, USA) coupled to a triple quadrupole tandem mass spectrometer (MS/MS). An Acquity UPC^2 BEH (3.0 × 100 mm^2, 1.7 μm) column was used for separation purposes.
The final MBQ-167 PBPK model was verified through both graphical and numerical analysis. Experimental and predicted longitudinal plasma concentration- (Cp) and tissue concentration- (Ct) profiles were generated, including the 95% confidence intervals (95% CI) of the observations at each sampling time and the mean predicted concentrations. LSA was performed to evaluate the relative impact of B/P, fu, CLR, CLtumor and PS in the plasma PK exposure parameters (AUC0-t and Cmax). The performance of the MBQ-167 PBPK model was assessed by the fold error at each tissue, which referred to the ratio of the predicted AUC0-t or Cmax to the observed AUC0-t or Cmax, respectively (Equation (1)). AUC0-t was calculated by the trapezoidal rule. Both graphical and numerical analyses were performed in RStudio version 1.2.5019 (Boston, MA, USA, 2019) with R version 3.5.1 (GNU project). (1) Fold ERROR PK parameter=Predicted PK parameter/Observed PK parameter

[9] = test system: GFP-MDA-MB-231 (TNBC) mammary fat pad tumors; experiment: Triple Negative tumor growth study (observed); assay type: in vivo, athymic nude (nu/nu) mice; details: 10 mg/kg BW IP three times a week for 108 days
Method: As published elsewhere, female athymic nude (nu/nu) mice, 4 to 5 weeks old (Charles River Laboratories, Inc., Wilmington, MA, USA) were maintained under pathogen-free conditions in HEPA-filtered cages (5 mice per cage) under controlled light (12 h light and dark cycle), temperature (22–24 °C), and humidity (25%).
Mammary fat pad tumors were established using green fluorescent protein (GFP)-tagged MDA-MB-435 (HER2++) cells in Matrigel (BD Biosciences, San Jose, CA, USA) or GFP-MDA-MB-231 (TNBC) cells by injecting at the fourth right mammary fat pad under isofluorane inhalation (1–3% in oxygen using an inhalation chamber at 2 L/min) to produce orthotopic primary tumors. […]
Mammary tumor growth was quantified as changes in the integrated density of green fluorescent protein (GFP) fluorescence. […] The FluorVivo small animal in vivo imaging system (INDEC Systems, Inc., Santa Clara, CA, USA) was used for whole body imaging of GFP fluorescence. Tumor fluorescence intensities were analyzed using Image J software (National Institutes of Health, Bethesda, MD, USA, 2019, Version 1.52q 13). Relative tumor growth was calculated as the integrated density of fluorescence of each tumor on each day of imaging relative to the integrated density of fluorescence of the same tumor on day 1 of treatment administration, relative to vehicle controls.

CYP1A2 = target: T1, CYP1A2 (Homo sapiens, UniProt P05177); experiment: CYP inhibition; assay type: in vitro ADME
T1 sequence (P05177 1-516): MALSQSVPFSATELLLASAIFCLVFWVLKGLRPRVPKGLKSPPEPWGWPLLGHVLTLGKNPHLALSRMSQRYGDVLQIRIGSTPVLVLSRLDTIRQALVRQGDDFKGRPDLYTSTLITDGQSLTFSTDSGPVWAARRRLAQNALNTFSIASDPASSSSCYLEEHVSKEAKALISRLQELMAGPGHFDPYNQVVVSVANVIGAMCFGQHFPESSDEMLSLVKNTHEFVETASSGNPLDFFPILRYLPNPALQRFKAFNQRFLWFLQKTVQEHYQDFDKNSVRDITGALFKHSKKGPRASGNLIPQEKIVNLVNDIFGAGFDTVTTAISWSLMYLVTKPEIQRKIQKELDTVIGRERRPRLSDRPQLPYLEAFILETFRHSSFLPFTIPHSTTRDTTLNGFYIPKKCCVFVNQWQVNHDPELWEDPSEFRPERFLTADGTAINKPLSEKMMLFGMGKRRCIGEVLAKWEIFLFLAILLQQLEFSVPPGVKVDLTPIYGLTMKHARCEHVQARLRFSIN
Description: as §1

CYP3A4 = CYP3A4 (Homo sapiens, UniProt P08684); experiment: CYP inhibition; assay type: in vitro ADME
CYP3A4, sequence (P08684 whole entry): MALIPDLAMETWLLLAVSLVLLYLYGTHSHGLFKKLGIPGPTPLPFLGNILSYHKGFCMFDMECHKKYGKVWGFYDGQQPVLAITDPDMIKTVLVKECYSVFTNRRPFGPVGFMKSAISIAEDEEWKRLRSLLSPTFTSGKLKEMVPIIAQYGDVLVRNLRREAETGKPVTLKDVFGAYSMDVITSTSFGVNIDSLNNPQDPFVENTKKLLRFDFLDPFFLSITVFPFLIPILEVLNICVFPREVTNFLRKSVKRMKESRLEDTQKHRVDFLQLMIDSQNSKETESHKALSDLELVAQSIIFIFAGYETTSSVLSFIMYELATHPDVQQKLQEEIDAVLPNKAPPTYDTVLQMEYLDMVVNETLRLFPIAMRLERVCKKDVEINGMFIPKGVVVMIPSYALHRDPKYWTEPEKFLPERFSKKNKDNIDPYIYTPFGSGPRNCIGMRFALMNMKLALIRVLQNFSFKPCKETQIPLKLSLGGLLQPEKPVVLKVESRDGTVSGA
Description: as §1

CYP2C9 = CYP2C9 (Homo sapiens, UniProt P11712); experiment: CYP inhibition; assay type: in vitro ADME
CYP2C9, sequence (P11712 whole entry): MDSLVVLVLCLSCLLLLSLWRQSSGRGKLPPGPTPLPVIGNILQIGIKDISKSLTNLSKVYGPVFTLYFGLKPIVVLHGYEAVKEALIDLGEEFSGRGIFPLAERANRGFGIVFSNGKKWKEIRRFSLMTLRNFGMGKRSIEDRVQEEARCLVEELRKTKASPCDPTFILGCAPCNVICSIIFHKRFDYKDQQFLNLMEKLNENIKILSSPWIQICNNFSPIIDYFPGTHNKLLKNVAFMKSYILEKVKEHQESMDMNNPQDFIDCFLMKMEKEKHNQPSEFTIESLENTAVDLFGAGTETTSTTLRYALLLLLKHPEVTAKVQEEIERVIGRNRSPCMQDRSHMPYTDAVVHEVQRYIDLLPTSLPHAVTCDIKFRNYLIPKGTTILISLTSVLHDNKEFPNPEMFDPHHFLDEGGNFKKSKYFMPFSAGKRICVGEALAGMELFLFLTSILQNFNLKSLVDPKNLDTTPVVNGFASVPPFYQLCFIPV
Description: as §1

CYP2C19 = CYP2C19 (Homo sapiens, UniProt P33261); experiment: CYP inhibition; assay type: in vitro ADME
CYP2C19, sequence (P33261 whole entry): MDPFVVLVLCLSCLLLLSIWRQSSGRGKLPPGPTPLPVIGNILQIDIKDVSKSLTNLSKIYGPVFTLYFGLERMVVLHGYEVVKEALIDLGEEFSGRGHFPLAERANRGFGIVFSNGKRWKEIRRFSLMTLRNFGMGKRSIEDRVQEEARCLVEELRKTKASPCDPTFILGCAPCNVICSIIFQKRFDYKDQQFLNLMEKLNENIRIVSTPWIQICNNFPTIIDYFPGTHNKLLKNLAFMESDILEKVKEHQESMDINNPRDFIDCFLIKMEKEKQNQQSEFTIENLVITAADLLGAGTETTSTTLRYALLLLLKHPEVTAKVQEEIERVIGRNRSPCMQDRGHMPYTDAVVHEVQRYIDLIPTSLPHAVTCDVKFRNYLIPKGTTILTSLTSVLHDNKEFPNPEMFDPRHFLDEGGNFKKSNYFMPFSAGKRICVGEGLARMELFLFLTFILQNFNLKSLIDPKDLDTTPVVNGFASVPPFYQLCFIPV
Description: as §1

O=c1cc(CN2CCOCC2)occ1OCCCCCSc1ccnc2cc(C(F)(F)F)ccc12 [EHT1864]
t1/2 [1]: 1.65 h

CCn1c2ccccc2c2cc(Nc3ccnc(NCCCN4CCOCC4)n3)ccc21 [EHop-016]
t1/2 [1]: 5.73 h

CCn1c2ccccc2c2cc(-n3nncc3-c3ccccc3)ccc21 [MBQ-167]
Compound Type [2]: Monoprotic Base
pKa ([2]; source not stated): 0.27
logPo:w ([2]; octanol:water, source not stated): 4.944
effect on metastases ([3]; 10 mg/kg BW, mice): total inhibition of metastases
start of mammary fat pad tumor size reduction after treatment ([3]; 10 mg/kg BW, mice): approximately 3 weeks
toxicity in vivo ([3]; preclinical studies): without apparent toxicity
metabolites formed [4]: up to nine metabolites
hepatocyte CLint [5]: 79 µL/min/1e6 cells
volume of distribution reported in the literature ([6]; mice of 20 g body weight): 400 mL
systemic plasma clearance (reported/observed) ([6]; mice): 2.15 mL/min
Cmax [7]: 1240 ng/mL
AUC(0-t) ([7]; read-out: AUC obs (AUC0-t)): 10300 ng·h/mL
Cmax ([8]; heart): 841 ng/mL
AUC(0-t) ([8]; heart): 949 ng·h/mL
Cmax ([8]; kidneys): 11200 ng/mL
AUC(0-t) ([8]; kidneys): 34300 ng·h/mL
Cmax ([8]; liver): 4790 ng/mL
AUC(0-t) ([8]; liver): 8390 ng·h/mL
Cmax ([8]; lung): 1540 ng/mL
AUC(0-t) ([8]; lung): 1890 ng·h/mL
Cmax ([8]; plasma): 840 ng/mL
AUC(0-t) ([8]; plasma): 1420 ng·h/mL
Cmax ([8]; spleen): 1690 ng/mL
AUC(0-t) ([8]; spleen): 3980 ng·h/mL
observed relative reduction in the final tumor size [9]: 87.0%
CYP1A2 inhibition (CYP1A2): inhibits
CYP3A4 inhibition (CYP3A4): inhibits
CYP2C9 inhibition (CYP2C9): inhibits
CYP2C19 inhibition (CYP2C19): inhibits
